Assay results published in the NIST ThermoML archive (doi:10.1016/j.tca.2011.12.010).
Values joined by “and” are separate entries in the source; they are usually repeats but may differ in a detail not shown here. Equal values may be shown once.

Experiment: molar heat capacity at constant pressure
Conditions: 101.33 kPa, Small sample (50 mg) DSC

O=[N+]([O-])[O-].O=[N+]([O-])[O-].O=[N+]([O-])[O-].O=[N+]([O-])[O-].[K+].[K+].[Mg+2] [bis-potassium magnesium nitrate]
Conditions	molar heat capacity at constant pressure
461 K, Crystal 1	606.9 J/K/mol
462 K, Crystal 1	680.8 J/K/mol
463 K, Crystal 1	806.8 J/K/mol
464 K, Crystal 1	1030.1 J/K/mol
465 K, Crystal 1	1503.6 J/K/mol
466 K, Crystal 1	2552.2 J/K/mol
467 K, Crystal 1	4003 J/K/mol
469 K, Liquid	2955.4 J/K/mol
470 K, Liquid	2419.9 J/K/mol
471 K, Liquid	1683.9 J/K/mol
472 K, Liquid	1106.4 J/K/mol
473 K, Liquid	770 J/K/mol
474 K, Liquid	542.5 J/K/mol
475 K, Liquid	510 J/K/mol
476 K, Liquid	480.6 J/K/mol
477 K, Liquid	469 J/K/mol
478 K, Liquid	455.6 J/K/mol
478.15 K, Liquid	463.8 J/K/mol
479 K, Liquid	462.4 J/K/mol
480 K, Liquid	462.4 J/K/mol
481 K, Liquid	462.4 J/K/mol
482 K, Liquid	462.6 J/K/mol
483 K, Liquid	462.8 J/K/mol
484 K, Liquid	463 J/K/mol
485 K, Liquid	459.2 J/K/mol and 463.2 J/K/mol
486 K, Liquid	463.3 J/K/mol
487 K, Liquid	463.4 J/K/mol
488 K, Liquid	463.6 J/K/mol
489 K, Liquid	463.8 J/K/mol
490 K, Liquid	463.9 J/K/mol
491 K, Liquid	464.1 J/K/mol
492 K, Liquid	464.6 J/K/mol
493 K, Liquid	464.6 J/K/mol
494 K, Liquid	464.9 J/K/mol
495 K, Liquid	465.2 J/K/mol
496 K, Liquid	465.5 J/K/mol
497 K, Liquid	465.6 J/K/mol
498 K, Liquid	465.8 J/K/mol
499 K, Liquid	466 J/K/mol
500 K, Liquid	466.2 J/K/mol
501 K, Liquid	466.4 J/K/mol
502 K, Liquid	466.6 J/K/mol
503 K, Liquid	466.1 J/K/mol
504 K, Liquid	467 J/K/mol
505 K, Liquid	467.2 J/K/mol
506 K, Liquid	467.4 J/K/mol
507 K, Liquid	467 J/K/mol
508 K, Liquid	467.8 J/K/mol
509 K, Liquid	466.6 J/K/mol
510 K, Liquid	469 J/K/mol and 466.2 J/K/mol
511 K, Liquid	466.2 J/K/mol
512 K, Liquid	464.1 J/K/mol
513 K, Liquid	465.5 J/K/mol
514 K, Liquid	464.5 J/K/mol
515 K, Liquid	471.8 J/K/mol
516 K, Liquid	470.4 J/K/mol
517 K, Liquid	466.9 J/K/mol
518 K, Liquid	471.1 J/K/mol
519 K, Liquid	476.4 J/K/mol
520 K, Liquid	475.7 J/K/mol and 471.8 J/K/mol
521 K, Liquid	475.7 J/K/mol
522 K, Liquid	480.9 J/K/mol
523 K, Liquid	478.1 J/K/mol
524 K, Liquid	478.6 J/K/mol
525 K, Liquid	479.1 J/K/mol
526 K, Liquid	478.1 J/K/mol
527 K, Liquid	478.7 J/K/mol
528 K, Liquid	478.8 J/K/mol
529 K, Liquid	485.8 J/K/mol
530 K, Liquid	480.6 J/K/mol
531 K, Liquid	474.6 J/K/mol
532 K, Liquid	475.7 J/K/mol
533 K, Liquid	476 J/K/mol
534 K, Liquid	477.4 J/K/mol
535 K, Liquid	483.4 J/K/mol and 478.8 J/K/mol
536 K, Liquid	480.6 J/K/mol
537 K, Liquid	481.3 J/K/mol
538 K, Liquid	483.4 J/K/mol
539 K, Liquid	484.4 J/K/mol
540 K, Liquid	486.5 J/K/mol
541 K, Liquid	486.9 J/K/mol
542 K, Liquid	487.6 J/K/mol
543 K, Liquid	489 J/K/mol
544 K, Liquid	490.7 J/K/mol
545 K, Liquid	491.8 J/K/mol
546 K, Liquid	493.5 J/K/mol
547 K, Liquid	494.9 J/K/mol
548 K, Liquid	495.6 J/K/mol
549 K, Liquid	496.7 J/K/mol
550 K, Liquid	498.4 J/K/mol
551 K, Liquid	499.5 J/K/mol
552 K, Liquid	500.9 J/K/mol
553 K, Liquid	502.3 J/K/mol
554 K, Liquid	503 J/K/mol
555 K, Liquid	504.4 J/K/mol
556 K, Liquid	505.8 J/K/mol
557 K, Liquid	506.5 J/K/mol
558 K, Liquid	508.2 J/K/mol
559 K, Liquid	508.9 J/K/mol
560 K, Liquid	510.3 J/K/mol
561 K, Liquid	511.4 J/K/mol
562 K, Liquid	512.4 J/K/mol
563 K, Liquid	513.1 J/K/mol
564 K, Liquid	514.2 J/K/mol
565 K, Liquid	515.2 J/K/mol
566 K, Liquid	517 J/K/mol
567 K, Liquid	518 J/K/mol
568 K, Liquid	518.4 J/K/mol
569 K, Liquid	518.4 J/K/mol
570 K, Liquid	519.1 J/K/mol
571 K, Liquid	519.4 J/K/mol
572 K, Liquid	518.4 J/K/mol
573 K, Liquid	519.1 J/K/mol
574 K, Liquid	519.1 J/K/mol
575 K, Liquid	521.4 J/K/mol and 519.4 J/K/mol
576 K, Liquid	519.8 J/K/mol
577 K, Liquid	518.7 J/K/mol
578 K, Liquid	511.7 J/K/mol
579 K, Liquid	512.8 J/K/mol
580 K, Liquid	514.2 J/K/mol and 525.2 J/K/mol
581 K, Liquid	515.9 J/K/mol
582 K, Liquid	517.3 J/K/mol
583 K, Liquid	518.7 J/K/mol
584 K, Liquid	520.5 J/K/mol
585 K, Liquid	521.9 J/K/mol and 529.9 J/K/mol
586 K, Liquid	524 J/K/mol
587 K, Liquid	525.4 J/K/mol
588 K, Liquid	526.8 J/K/mol
589 K, Liquid	528.2 J/K/mol
590 K, Liquid	529.9 J/K/mol and 531.4 J/K/mol
591 K, Liquid	525.4 J/K/mol
592 K, Liquid	525.4 J/K/mol
593 K, Liquid	526.1 J/K/mol
594 K, Liquid	526.4 J/K/mol
595 K, Liquid	525.4 J/K/mol and 534.2 J/K/mol
596 K, Liquid	526.1 J/K/mol
597 K, Liquid	526.1 J/K/mol
598 K, Liquid	527.1 J/K/mol
599 K, Liquid	525.7 J/K/mol
600 K, Liquid	525 J/K/mol and 537.1 J/K/mol
601 K, Liquid	526.4 J/K/mol
602 K, Liquid	521.9 J/K/mol
603 K, Liquid	521.9 J/K/mol
604 K, Liquid	519.8 J/K/mol
605 K, Liquid	522.6 J/K/mol and 539.5 J/K/mol
606 K, Liquid	524.7 J/K/mol
607 K, Liquid	524.7 J/K/mol
608 K, Liquid	520.8 J/K/mol
609 K, Liquid	521.9 J/K/mol
610 K, Liquid	526.8 J/K/mol and 541 J/K/mol
611 K, Liquid	532 J/K/mol
612 K, Liquid	525 J/K/mol
613 K, Liquid	529.2 J/K/mol
614 K, Liquid	536.6 J/K/mol
615 K, Liquid	532 J/K/mol and 545.6 J/K/mol
616 K, Liquid	533.8 J/K/mol
617 K, Liquid	541.5 J/K/mol
618 K, Liquid	537.6 J/K/mol
619 K, Liquid	543.2 J/K/mol
620 K, Liquid	538.7 J/K/mol and 547.7 J/K/mol
621 K, Liquid	542.2 J/K/mol
622 K, Liquid	543.6 J/K/mol
623 K, Liquid	544.3 J/K/mol
623.15 K, Liquid	543.9 J/K/mol and 552.9 J/K/mol
